# Reference: US12667586B2, “Treatments for ocular surface disorders” (Glaukos Corporation, priority 2023, dated 2026)
# What was measured:
# [1] = system: gap junctions; conditions: in some circumstances; cited from earlier work
# [2] = target: Cx43 hemichannels (Homo sapiens, UniProt P17302); conditions: cited from earlier work
# [3] = system: ATP release in glioma cells; conditions: read-out: IC50 (half maximal inhibitory concentration) for the inhibition of ATP release; cited from earlier work
# [4] = system: persistent epithelial defect (PED) of the cornea; test: Phase 2 randomized, double-masked, vehicle-controlled study in subjects with persistent epithelial defects (PED) from ocular chemical and/or thermal injuries; type: in vivo, human; conditions: for subjects who achieved corneal epithelial recovery (re-epithelialized by Day 28 and remained so for at least 28 days): topical under bandage contact lens and to fornices, Day 1, Day 2, Day 14 if not re-epithelialized, n=12, full data set
# Description: A Phase 2, Randomized, Prospective, Double-Masked, Vehicle-Controlled Study to Assess the Efficacy and Safety of Lufepirsen® (Lufepirsen) Applied Topically in Subjects with Persistent Epithelial Defects (PED) Resulting from Ocular Chemical and/or Thermal Injuries.
# This Example describes the use of an exemplary connexin modulator (lufepirsen) in a randomized, prospective, vehicle-controlled, double-masked, human clinical trial to treat non-healing ocular surface defects. Lufepirsen is a connexin 43 antisense oligonucleotide according to SEQ ID NO:1. The vehicle comparator in the trial was Pluronic F-127.
# Study Subjects: A total of 35 subjects were enrolled in this clinical trial. All eligible subjects presented with a non-infected, persistent epithelial defect (PED) of the cornea as a result of a chemical and/or thermal ocular injury, that was refractory to current standard of care for at least 14 days. Of the 35 subjects, 24 subjects received topical ocular dose administrations of […] and 11 subjects received Vehicle. […]
# • Corneal epithelial recovery, defined as a cornea that re-epithelializes by Day 28 of treatment and remains re-epithelialized for at least 28 days after initial re-epithelialization was first recorded, as assessed by the Investigator. Secondary Endpoints: • The time to epithelialization defined as the time from randomization to the time of initial re-epithelialization. • Improvement of visual acuity from baseline over the course of the study period. • Number of […] treatment doses required for recovery of the corneal epithelium. Exploratory Endpoints: • Change from baseline in PED area defined as the largest diameter times the largest one perpendicular to it, within the confines of the epithelial defect. • Corneal re-epithelialization, defined as a cornea that has re-epithelialized by Day 28 of treatment. • Change from baseline in ocular symptoms. • Primary, secondary, and exploratory endpoints were also assessed (as applicable) for the open-label section of the study. • Descriptive comparison of intrasubject corneal re-epithelization to fellow eye in subjects with bilateral injuries Safety: • Incidence of Treatment Emergent Adverse Events.
# Treatment Dosing: The study comprised of a 28-day Treatment Period, followed by a Post-treatment Follow-up Period of at least 28 days to evaluate both safety and re-epithelization status (durability), both of which were double-masked (i.e., double-blinded). Once determined to be eligible, subjects were randomized to receive either […] 0.06% or […] 0.006% or Vehicle in a 1:1:1 ratio respectively. Investigational product was applied under a bandage contact lens (BCL) and to the fornices of the study eye at the following time points during the Treatment Period: • Day 1 • Day 2 • Day 14 (if the cornea has not re-epithelialized)
# The eye was then covered with a double eye pad and taped shut for approximately 8 hours.
# Three treatment arms were evaluated in the study. Randomization was in a 1:1:1 ratio: • GROUP A—[…] 0.06% • GROUP B—[…] 0.006% • GROUP C—Vehicle
# There was a single application of investigational product on Day 1 and Day 2. A potential additional application of investigational product was scheduled at Day 14 if re-epithelialization has not occurred.
# The first investigational product application occurred following randomization on Day 1 of the Treatment Period, with the second application administered on Day 2. […]
# [5] = target: gap junctions (Homo sapiens); conditions: at 17 μM; cited from earlier work
# Chain of gap junctions (Homo sapiens) (P08034 whole entry): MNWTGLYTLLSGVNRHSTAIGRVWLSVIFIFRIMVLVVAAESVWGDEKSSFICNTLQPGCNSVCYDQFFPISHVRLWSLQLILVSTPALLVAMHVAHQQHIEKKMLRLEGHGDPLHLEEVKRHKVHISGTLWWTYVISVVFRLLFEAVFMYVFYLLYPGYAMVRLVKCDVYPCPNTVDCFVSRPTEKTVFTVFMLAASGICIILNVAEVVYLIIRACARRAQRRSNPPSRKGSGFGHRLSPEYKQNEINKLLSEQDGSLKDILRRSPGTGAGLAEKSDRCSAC
# Chain of Cx43 hemichannels (P17302 2-382 limits assumed): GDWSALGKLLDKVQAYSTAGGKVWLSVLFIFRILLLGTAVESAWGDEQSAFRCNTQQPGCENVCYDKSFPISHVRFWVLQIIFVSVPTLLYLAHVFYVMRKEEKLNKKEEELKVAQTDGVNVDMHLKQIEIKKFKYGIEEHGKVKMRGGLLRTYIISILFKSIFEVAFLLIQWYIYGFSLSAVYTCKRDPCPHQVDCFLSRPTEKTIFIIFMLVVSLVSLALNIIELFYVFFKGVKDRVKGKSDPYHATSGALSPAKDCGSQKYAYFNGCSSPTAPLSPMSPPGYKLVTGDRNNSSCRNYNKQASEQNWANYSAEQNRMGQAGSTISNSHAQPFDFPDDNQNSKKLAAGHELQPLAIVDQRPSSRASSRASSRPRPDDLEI
substance,measurement,setting,value
VDCFLSRPTEKT [Peptide5],concentration at which incubation also leads to inhibition of gap junctions,[1],≥ 100 µM
same,concentration at which Cx43 hemichannels are inhibited,[2],5 to 10 µM
YGRKKRRQRRRKQIEIKKFK [TAT-^43Gap19],IC50,[3],7 µM
"5′-GTAATTGCGGCAAGAAGAATTGTTTCTGTC-3′ (antisense GTAATTGCGGCAAGAAGAATTGTTTCTGTC; listed as DNA, chemistry not given here)",subjects who achieved corneal epithelial recovery (re-epithelialized by Day 28 and remained so for at least 28 days),[4]; LUFEPIRSEN 0.006%,66.7%
same,subjects who achieved corneal epithelial recovery (re-epithelialized by Day 28 and remained so for at least 28 days),[4]; LUFEPIRSEN 0.06%,66.7%
same,tolerability of treatment (TEAEs),"[4]; TEAEs across all 3 treatment groups mild to moderate, unlikely/unrelated to study drug, a SAE not related to study drug",well tolerated
same,times more likely to heal than the vehicle group,[4]; both LUFEPIRSEN doses pooled (n=24) vs VEH (n=11),2.44 times
same,comparative improvement in corneal epithelial recovery over the VEH group,"[4]; both LUFEPIRSEN doses pooled (n=24) vs VEH (n=11), Fisher's exact test p=0.065",39.4%
"GHGDPLHLEEVKC [^32Gap24, peptide that mimics a 13 amino acid long stretch of the L2 region of Cx32]",effect on gap junctions,[5],without affecting gap junctions
